This note sets out measurements from patent US20240208992A1, “MACROCYCLES AS CFTR MODULATORS” (Idorsia Pharmaceuticals Ltd, priority 2021, published 2024).

Like-named read-outs stand apart in the source and are kept apart here.

The conditions of data set [1]: the molecule shown is the open-chain precursor; amide bond; 17-membered ring; 2 steps.
For data set [2] the following is noted: amide bond.
For data set [3] the following is noted: amide bond, 17-membered ring.
The next data set has as its target human F508del-CFTR (Homo sapiens, UniProt P13569, DEL508-508). The data set is described as follows: F508del-CFTR cell surface expression (corrector activity), DiscoveRx ß-galactosidase complementation chemiluminescence assay in recombinant U2OS cell line.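 Also: U2OS cells co-expressing ProLink-tagged F508del-CFTR and a membrane-anchored enzyme acceptor, where more surface CFTR restores β-galactosidase activity measured by chemiluminescence.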

Usually EC50 stands for the midpoint of the concentration-response curve. A word on the Emax: it is the maximal effect, on the per cent scale that the assay sets.

Sequence of human F508del-CFTR (P13569 with tags, fused parts or gaps DEL508-508): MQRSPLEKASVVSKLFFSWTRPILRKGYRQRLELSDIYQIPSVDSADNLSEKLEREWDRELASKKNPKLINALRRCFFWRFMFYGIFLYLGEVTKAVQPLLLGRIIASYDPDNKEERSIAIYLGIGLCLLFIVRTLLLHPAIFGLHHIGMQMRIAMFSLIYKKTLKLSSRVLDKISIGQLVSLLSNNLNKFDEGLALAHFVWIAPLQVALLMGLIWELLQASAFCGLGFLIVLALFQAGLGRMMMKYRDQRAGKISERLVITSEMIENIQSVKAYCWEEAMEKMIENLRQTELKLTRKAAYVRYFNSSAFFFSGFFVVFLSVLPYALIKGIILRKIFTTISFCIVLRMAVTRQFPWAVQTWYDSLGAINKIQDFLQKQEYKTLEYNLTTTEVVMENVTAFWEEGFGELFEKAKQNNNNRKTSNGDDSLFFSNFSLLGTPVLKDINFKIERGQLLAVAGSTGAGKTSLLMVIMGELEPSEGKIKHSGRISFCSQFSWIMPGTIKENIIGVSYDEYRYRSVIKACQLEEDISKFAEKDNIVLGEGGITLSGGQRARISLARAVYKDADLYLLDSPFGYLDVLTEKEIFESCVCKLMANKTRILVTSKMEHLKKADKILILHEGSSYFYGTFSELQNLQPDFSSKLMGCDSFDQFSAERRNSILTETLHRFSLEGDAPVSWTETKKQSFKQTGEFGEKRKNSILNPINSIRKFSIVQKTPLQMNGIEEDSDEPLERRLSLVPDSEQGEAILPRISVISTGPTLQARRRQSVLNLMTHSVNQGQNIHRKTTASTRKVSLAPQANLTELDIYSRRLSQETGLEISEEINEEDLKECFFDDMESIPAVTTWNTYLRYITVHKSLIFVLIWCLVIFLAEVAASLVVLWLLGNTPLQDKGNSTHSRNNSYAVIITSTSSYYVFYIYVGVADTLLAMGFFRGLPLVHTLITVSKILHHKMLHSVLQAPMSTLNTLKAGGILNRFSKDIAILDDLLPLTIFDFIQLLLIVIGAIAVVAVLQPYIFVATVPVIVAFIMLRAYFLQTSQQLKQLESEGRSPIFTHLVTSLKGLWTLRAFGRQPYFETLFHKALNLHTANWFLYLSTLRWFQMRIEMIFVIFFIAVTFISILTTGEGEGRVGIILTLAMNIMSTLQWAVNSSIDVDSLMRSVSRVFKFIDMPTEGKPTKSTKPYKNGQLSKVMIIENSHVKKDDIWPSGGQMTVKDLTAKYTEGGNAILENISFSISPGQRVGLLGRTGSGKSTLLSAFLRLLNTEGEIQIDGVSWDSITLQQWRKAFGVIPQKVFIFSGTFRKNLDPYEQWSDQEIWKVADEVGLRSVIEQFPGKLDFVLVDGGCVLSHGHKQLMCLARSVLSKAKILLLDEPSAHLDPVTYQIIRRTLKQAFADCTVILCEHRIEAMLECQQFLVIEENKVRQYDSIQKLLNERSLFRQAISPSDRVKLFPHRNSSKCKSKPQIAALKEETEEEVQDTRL

In data set [1], `CC(C)C[C@@H](C(=O)N1CCCC[C@@H]1C(=O)N[C@@H](COc1cnc2ccccc2c1C(=O)N[C@@H](CC(=O)OC(C)(C)C)C(=O)OCc1ccccc1)Cc1ccccc1)N(C)C(=O)OC(C)(C)C` had a ring closure, isolated yield of 58%. Molecule `CC(C)C[C@H]1C(=O)N(CCC(C)(C)C)CC(=O)N[C@H](Cc2ccccc2)COc2cc3c(cc2C(=O)N[C@H](C(=O)O)CC(=O)N1C)OCO3` gave a ring closure, yield of all isomers in data set [2] (from CN[C@@H](CC(C)C)C(=O)N(CCC(C)(C)C)CC(=O)N[C@@H](COc1cc2c(cc1C(=O)N[C@@H](CC(=O)O)C(=O)O)OCO2)Cc1ccccc1, pentafluorophenyl diphenylphosphinate (FDPP), DMF/DCM, 67.5 mM, 5.0 h, 11 steps) of 26%. Consider `CC(C)C[C@H]1C(=O)N(C[C@H]2COc3ccccc3C2)CC(=O)N[C@H](Cc2ccccc2)COc2ccc3ccccc3c2C(=O)N[C@H](C(=O)NCCc2ccc3c(c2)OCO3)CC(=O)N1C`, for which, in data set [3] (from CN[C@@H](CC(C)C)C(=O)N(CC(=O)N[C@@H](COc1ccc2ccccc2c1C(=O)N[C@@H](CC(=O)O)C(=O)NCCc1ccc2c(c1)OCO2)Cc1ccccc1)C[C@H]1COc2ccccc2C1, HATU/DIEA, DMF, 82.0 mM, 25.0 °C), the ring closure, yield after HPLC stood at 97%. In data set [3] (from CN[C@@H](CC1CC1)C(=O)N(CCC1CCCCC1)CC(=O)N[C@@H](COc1cc(OC)c(OC)cc1C(=O)N[C@@H](CC(=O)O)C(=O)OCc1ccccc1)Cc1ccccc1, FDPP, DCM, 50.0 °C), `COc1cc2c(cc1OC)C(=O)N[C@H](C(=O)OCc1ccccc1)CC(=O)N(C)[C@@H](CC1CC1)C(=O)N(CCC1CCCCC1)CC(=O)N[C@H](Cc1ccccc1)CO2` returned a ring closure, yield after HPLC of 13%. The ring closure, yield of all isomers in data set [2] (from CN[C@@H](CC1CC1)C(=O)N(CCC1CCCCC1)CC(=O)N[C@@H](COc1cc(OC)c(OC)cc1C(=O)N[C@@H](CC(=O)O)C(=O)OCc1ccccc1)Cc1ccccc1, FDPP, DCM, 50.0 °C, 12.0 h) was 13%. Molecule `COc1nccc2c1C(=O)N[C@H](C(=O)NCCc1nc(C3CC3)no1)CC(=O)N(C)[C@@H](CC(C)C)C(=O)N(C)C(COCc1ccccc1)C(=O)N[C@H](Cc1ccccc1)CO2` (stereo partly shown) registered a ring closure, yield after HPLC in data set [3] (from CN[C@@H](CC(C)C)C(=O)N(C)C(COCc1ccccc1)C(=O)N[C@@H](COc1ccnc(OC)c1C(=O)N[C@@H](CC(=O)O)C(=O)NCCc1nc(C2CC2)no1)Cc1ccccc1, HATU/DIEA, DMF, 60.0 mM) of 82%. In the case of `COc1cccc(CCNC(=O)[C@@H]2CC(=O)N(C)[C@@H](CC(C)C)C(=O)N(C)[C@H](COCc3ccccc3)C(=O)N[C@H](Cc3ccccc3)COc3ccc4ccccc4c3C(=O)N2)c1` [Example 713, (3S,7S,10R,13R)-13-benzyl-10-((benzyloxy)methyl)-7-isobutyl-N-(3-methoxyphenethyl)-6,9-dimethyl-1,5,8,11-tetraoxo-1,2,3,4,5,6,7,8,9,10,11,12,13,14-tetradecahydronaphtho[1,2-p][1]oxa[4,7,10,14]tetraazacycloheptadecine-3-carboxamide], the ring closure, yield after HPLC in data set [3] (from CN[C@@H](CC(C)C)C(=O)N(C)[C@H](COCc1ccccc1)C(=O)N[C@@H](COc1ccc2ccccc2c1C(=O)N[C@@H](CC(=O)O)C(=O)NCCc1cccc(OC)c1)Cc1ccccc1, HATU/DIEA, DMF, 41.0 mM, 25.0 °C) was 82%. In addition, the EC50 on human F508del-CFTR (EC50, F508del-CFTR cell surface expression, U2OS cells, 16h compound incubation, geomean values) is 31 nM. Further, the Emax on human F508del-CFTR (U2OS, in relation to Emax of corrector lumacaftor (=100%), arithmetic mean values) was 432%. “(7R,13S,17S)-7-Benzyl-11-(3,3-dimethylbutyl)-13-isobutyl-14-methyl-9,12,15,19-tetraoxo-6,7,8,9,10,11,12,13,14,15,16,17,18,19-tetradecahydro-[1,3]dioxolo[4′,5′:4,5]benzo[1,2-p][1]oxa[4,7,10,14]tetraazacycloheptadecine-17-carboxylic acid”: in data set [3] (FDPP, DMF/DCM, resin, 67.5 mM, with chain assembly), the ring closure, yield after HPLC came out at 26%.
